The text below walks through data of ChEMBL document CHEMBL4196070, “Development of Piperazinediones as dual inhibitor for treatment of Alzheimer's disease” (Eur J Med Chem, 2018).

SMILES strings stand for the structures. Activity calls are given as the source filed them. The rule behind the calls is not given here.

Assay [1] can be described thus: Selectivity index, ratio of IC50 for electric eel AChE to IC50 for equine serum BuChE.
Assay [2] in a line: Antioxidant activity assessed as DPPH radical scavenging activity at 20 uM after 25 mins. The class given is functional. A general note: The DPPH test is a chemical assay of radical scavenging.
Assay [3] in a line: Antioxidant activity assessed as DPPH radical scavenging activity at 10 uM after 25 mins. The assay is classed as functional.
For assay [4], the system named is Mus musculus. Kind of assay: Reversal of scopolamine-induced amnesic effect in Swiss albino mouse assessed as reversal of lowered spontaneous alteration at 10 mg/kg, ip administered once daily for 7 days prior to 4 hrs of training followed by scopolamine challenge and measured after 5 mins by Y-maze test. The assay is classed as functional, organism-based.
The subject of assay [5] is Mus musculus. Kind of assay: Reversal of scopolamine-induced anxiety in Swiss albino mouse assessed as increase in number of novel arm entries at 5 to 10 mg/kg, ip administered once daily for 7 days prior to 4 hrs of training followed by scopolamine challenge and measured after 5 mins by Y-maze test. The class given is functional, organism-based.
Assay [6] relates to Mus musculus. The experiment in a line: Restoration of brain catalase level in scopolamine-induced Swiss albino mouse amnesia model at 10 mg/kg, ip administered once daily for 7 days followed by scopolamine challenge by spectrophotometric analysis. The class given is functional, organism-based.
For assay [7], the system named is Mus musculus. Kind of assay: Reversal of scopolamine-induced neophobia in Swiss albino mouse assessed as increase in number of novel arm entries at 5 to 10 mg/kg, ip administered once daily for 7 days prior to 4 hrs of training followed by scopolamine challenge and measured after 5 mins by Y-maze test. The class given is functional, organism-based.
The test system of assay [8] is Mus musculus. The experiment in a line: Restoration of brain mitochondrial membrane potential in scopolamine-induced Swiss albino mouse amnesia model at 5 mg/kg, ip administered once daily for 7 days followed by scopolamine challenge by tetramethylrhodamine dye-based fluorescence assay. The assay is classed as functional, organism-based.
The subject of assay [9] is Mus musculus. Kind of assay: Antialzheimer activity in Swiss albino mouse assessed as reversal of scopolamine-induced AChE level in brain at 10 mg/kg, ip administered once daily for 7 days followed by scopalamine challenge using acetylthiocholine iodide as substrate by Ellman's method. The class given is functional, organism-based. In general terms: Ellman's reagent forms a yellow product with free thiols.

Assay [10] concerns Mus musculus. The experiment in a line: Neuroprotective activity in scopolamine-induced amnesia Swiss albino mouse model assessed as decrease in neurodegenerative lesions in brain at 10 mg/kg, ip administered once daily for 7 days followed by scopolamine challenge by histopathological method. The class given is functional, organism-based.
Assay [11] deals with Mus musculus. Kind of assay: Anxiolytic activity in Swiss albino mouse assessed as increase in time spent in novel arm at 20 mg/kg, ip administered once daily for 7 days prior to 4 hrs of training followed by scopolamine challenge and measured after 5 mins by Y-maze test. The class given is functional, organism-based.
The subject of assay [12] is Mus musculus. The experiment in a line: Reversal of scopolamine-induced memory deficit in Swiss albino mouse assessed as increase in transfer latency time of retention trial at 10 mg/kg, ip administered once daily for 7 days followed by scopolamine challenge and subsequent training session for 5 mins by passive avoidance test. The class given is functional, organism-based.

For assay [13], the system named is Mus musculus. Kind of assay: Reversal of scopolamine-induced neophobia in Swiss albino mouse assessed as increase in number of novel arm entries at 5 mg/kg, ip administered once daily for 7 days prior to 4 hrs of training followed by scopolamine challenge and measured after 5 mins by Y-maze test. The assay is classed as functional, organism-based.
A short description of assay [14]: Metal chelating activity assessed as compound-Cu2+ complex formation at 600 uM after 8 hrs by UV spectroscopic analysis.
Assay [15] deals with Mus musculus. Kind of assay: Reversal of scopolamine-induced neophobia in Swiss albino mouse assessed as increase in number of novel arm entries at 10 mg/kg, ip administered once daily for 7 days prior to 4 hrs of training followed by scopolamine challenge and measured after 5 mins by Y-maze test. The class given is functional, organism-based.
The target of assay [16] is Acetylcholinesterase (Electrophorus electricus) (UniProt O42275). Kind of assay: Ratio of Vmax to Km for substrate for inhibition of electric eel AChE at 40 nM preincubated for 30 mins followed acetylthiocholine iodide substrate addition by Lineweaver-Burk plot analysis.
For assay [17], the system named is Mus musculus. The experiment in a line: Antialzheimer activity in Swiss albino mouse assessed as reversal of scopolamine-induced AChE level in brain at 5 mg/kg, ip administered once daily for 7 days followed by scopalamine challenge using acetylthiocholine iodide as substrate by Ellman's method. The class given is functional, organism-based.
The target in assay [18] is Acetylcholinesterase (Electrophorus electricus) (UniProt O42275). The experiment in a line: Ratio of Vmax to Km for substrate for inhibition of electric eel AChE at 20 nM preincubated for 30 mins followed acetylthiocholine iodide substrate addition by Lineweaver-Burk plot analysis.
Assay [19] has as its system Mus musculus. The experiment in a line: Reversal of scopolamine-induced anxiety in Swiss albino mouse assessed as increase in number of novel arm entries at 10 mg/kg, ip administered once daily for 7 days prior to 4 hrs of training followed by scopolamine challenge and measured after 5 mins by Y-maze test. The assay is classed as functional, organism-based.
The target of assay [20] is Acetylcholinesterase (Electrophorus electricus) (UniProt O42275). Kind of assay: Ratio of Vmax to Km for substrate for inhibition of electric eel AChE at 10 nM preincubated for 30 mins followed acetylthiocholine iodide substrate addition by Lineweaver-Burk plot analysis.
In assay [21] the test system is Mus musculus. The experiment in a line: Reversal of scopolamine-induced amnesic effect in Swiss albino mouse assessed as reversal of lowered spontaneous alteration at 5 mg/kg, ip administered once daily for 7 days prior to 4 hrs of training followed by scopolamine challenge and measured after 5 mins by Y-maze test. The class given is functional, organism-based.
The subject of assay [22] is Mus musculus. Kind of assay: Reversal of scopolamine-induced anxiety in Swiss albino mouse assessed as increase in number of novel arm entries at 5 mg/kg, ip administered once daily for 7 days prior to 4 hrs of training followed by scopolamine challenge and measured after 5 mins by Y-maze test. The assay is classed as functional, organism-based.
The test system of assay [23] is Mus musculus. The experiment in a line: Reversal of scopolamine-induced memory deficit in ip dosed Swiss albino mouse assessed as increase in transfer latency time of retention trial administered once daily for 7 days followed by scopolamine challenge and subsequent training session for 5 mins by passive avoidance test. The class given is functional, organism-based.

Chain of Acetylcholinesterase (Electrophorus electricus) (O42275 24-633 limits assumed): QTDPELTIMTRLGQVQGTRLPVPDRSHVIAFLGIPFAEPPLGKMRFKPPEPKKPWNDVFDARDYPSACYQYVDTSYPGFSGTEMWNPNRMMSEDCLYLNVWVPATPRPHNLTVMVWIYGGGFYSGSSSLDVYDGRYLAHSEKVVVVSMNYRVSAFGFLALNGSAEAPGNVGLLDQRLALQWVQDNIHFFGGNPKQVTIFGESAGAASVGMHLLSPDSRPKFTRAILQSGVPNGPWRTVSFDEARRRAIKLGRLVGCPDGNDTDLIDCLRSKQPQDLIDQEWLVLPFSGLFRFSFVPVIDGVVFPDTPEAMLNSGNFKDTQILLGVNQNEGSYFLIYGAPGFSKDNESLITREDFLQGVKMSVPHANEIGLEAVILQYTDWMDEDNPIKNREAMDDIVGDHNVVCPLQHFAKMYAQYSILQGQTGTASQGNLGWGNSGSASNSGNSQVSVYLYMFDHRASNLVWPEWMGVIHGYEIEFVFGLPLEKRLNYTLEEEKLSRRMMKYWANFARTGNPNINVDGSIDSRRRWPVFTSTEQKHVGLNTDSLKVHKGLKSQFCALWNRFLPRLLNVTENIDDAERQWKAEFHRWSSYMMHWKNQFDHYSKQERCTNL

For `O=C1C(Cc2ccccc2)N(S(=O)(=O)c2ccc(O)cc2)C(=O)C(Cc2ccccc2)N1S(=O)(=O)c1ccc(O)cc1` (stereo unspecified), the Ratio IC50 in assay [1] came to 0.3. Besides, the Activity came out at 68.6% in assay [2] and 58.1% in assay [3].
With `O=C1C(Cc2ccccc2)N(S(=O)(=O)c2cccc(Br)c2)C(=O)C(Cc2ccccc2)N1S(=O)(=O)c1cccc(Br)c1` (stereo unspecified), the Ratio IC50 in [1] turned out to be 0.4. Moreover, the values for the Activity in assay [2] and in [3] were 64.3% and 46.7%, respectively.
The corresponding values for `O=C1C(c2ccccc2)N(S(=O)(=O)c2ccc(Br)cc2)C(=O)C(c2ccccc2)N1S(=O)(=O)c1ccc(Br)cc1` (stereo unspecified) are 0.2, 63.8% and 45.7%.
The like results for `O=C1C(c2ccccc2)N(S(=O)(=O)c2cccc(Br)c2)C(=O)C(c2ccccc2)N1S(=O)(=O)c1cccc(Br)c1` (stereo unspecified) were, in that order, 0.4, 63.3% and 46.2%.
Consider `CCCCS(=O)(=O)N1CC(=O)N(S(=O)(=O)CCCC)CC1=O`, for which the Activity in assay [2] was found to be 56.7%; in [3] it was 65.7%.
Turning to `O=C1CN(S(=O)(=O)c2cccc(Cl)c2)C(=O)CN1S(=O)(=O)c1cccc(Cl)c1`, in assay [1], the Ratio IC50 came to 0.3. Further, the results for the Activity in assay [2] and in assay [3] were 55.2% and 35.7%, respectively.
Turning to `Cc1cccc(S(=O)(=O)N2C(=O)C(c3ccccc3)N(S(=O)(=O)c3cccc(C)c3)C(=O)C2c2ccccc2)c1` (stereo unspecified), in assay [1], the Ratio IC50 was less than 0.4. For the same molecule, the Activity in [2] was 55.2%; in assay [3], 38.6%.
With `O=C1O[C@H]([C@@H](O)CO)C(O)=C1O`, the results for the Activity in [2] and in assay [3] were 48.8% and 37.1%, respectively.
As for `O=C1CN(S(=O)(=O)c2ccc(F)cc2)C(=O)CN1S(=O)(=O)c1ccc(F)cc1`, the Ratio IC50 in assay [1] is 0.4. Besides, the figures for the Activity in assay [2] and in assay [3] were 50.5% and 37.1%, respectively.
`O=C1C(Cc2ccccc2)N(S(=O)(=O)c2ccc(Cl)cc2)C(=O)C(Cc2ccccc2)N1S(=O)(=O)c1ccc(Cl)cc1` (stereo unspecified): the result in the assay on Mus musculus [4], in the assay on Mus musculus [5], with Mus musculus [6], in the assay on Mus musculus [7], with Mus musculus [8] and with Mus musculus [9] was Active. Moreover, the result with Mus musculus [10] and in the assay with Mus musculus [11] was Active. In [1], the Ratio IC50 was determined as 0.2. Moreover, the Activity was 60% in [2] and 48.1% in [3].
Turning to `O=C1CN(S(=O)(=O)c2ccccc2)C(=O)CN1S(=O)(=O)c1ccccc1`, the values for the Activity in [2] and in assay [3] were 52.4% and 39.5%, respectively.
The corresponding values for `CCCS(=O)(=O)N1CC(=O)N(S(=O)(=O)CCC)CC1=O` are 59.2% and 31.4%.
For the molecule `O=C1C(Cc2ccccc2)N(S(=O)(=O)c2ccc(Br)cc2)C(=O)C(Cc2ccccc2)N1S(=O)(=O)c1ccc(Br)cc1` (stereo unspecified), in assay [1], the Ratio IC50 is 0.3. For the same molecule, the Activity stood at 64.8% in assay [2] and 47.6% in assay [3].
The like results for `O=C1C(c2ccccc2)N(S(=O)(=O)c2ccc(O)cc2)C(=O)C(c2ccccc2)N1S(=O)(=O)c1ccc(O)cc1` (stereo unspecified) were, in that order, less than 0.4, 65.2% and 52.9%.
The corresponding values for `O=C1C(Cc2ccccc2)N(S(=O)(=O)c2ccc([N+](=O)[O-])cc2)C(=O)C(Cc2ccccc2)N1S(=O)(=O)c1ccc([N+](=O)[O-])cc1` (stereo unspecified) are 0.4, 54.8% and 42.9%.
The like results for `O=C1CN(S(=O)(=O)c2ccc(Cl)cc2)C(=O)CN1S(=O)(=O)c1ccc(Cl)cc1` were, in that order, 0.3, 55.2% and 36.2%.
For the molecule `Nc1ccc(S(=O)(=O)N2C(=O)C(c3ccccc3)N(S(=O)(=O)c3ccc(N)cc3)C(=O)C2c2ccccc2)cc1` (stereo unspecified), the Ratio IC50 in assay [1] was less than 0.5. In addition, the Activity amounted to 66.7% in assay [2] and 56.2% in assay [3].
The corresponding values for `O=C1C(c2ccccc2)N(S(=O)(=O)c2ccc([N+](=O)[O-])cc2)C(=O)C(c2ccccc2)N1S(=O)(=O)c1ccc([N+](=O)[O-])cc1` (stereo unspecified) are 0.3, 54.3% and 42.4%.
Consider `Cc1ccc(S(=O)(=O)N2CC(=O)N(S(=O)(=O)c3ccc(C)cc3)CC2=O)cc1`, for which the Ratio IC50 in assay [1] was less than 0.6. The Activity in [2] came out at 46.7%; in assay [3] it was 34.8%.
The corresponding values for `O=C1CN(S(=O)(=O)c2ccc(Br)cc2)C(=O)CN1S(=O)(=O)c1ccc(Br)cc1` are 0.4, 60.4% and 47.1%.
Consider `O=C1C(Cc2ccccc2)N(S(=O)(=O)c2cccc(O)c2)C(=O)C(Cc2ccccc2)N1S(=O)(=O)c1cccc(O)c1` (stereo unspecified), for which the Ratio IC50 in assay [1] is 0.3. In addition, the Activity in [2] came to 66.2%; in assay [3], 57.1%.
As to `COc1cc2c(cc1OC)C(=O)C(CC1CCN(Cc3ccccc3)CC1)C2` (stereo unspecified), the Activity in assay [2] amounted to 74.6%; in [3], 60.1%. Besides, the outcome with Mus musculus [12] was Active.
Turning to `Nc1ccc(S(=O)(=O)N2CC(=O)N(S(=O)(=O)c3ccc(N)cc3)CC2=O)cc1`, the Ratio IC50 in assay [1] is less than 0.4. The values for the Activity in [2] and in [3] were 62.9% and 55.7%, respectively.
Take `O=C1C(c2ccccc2)N(S(=O)(=O)c2ccc(Cl)cc2)C(=O)C(c2ccccc2)N1S(=O)(=O)c1ccc(Cl)cc1` (stereo unspecified): the result (in the assay with Mus musculus [13]; in [14]; in the assay with Mus musculus [8]; with Mus musculus [17]; with Mus musculus [10]; in the assay with Mus musculus [21]) was Active. In addition, the result in the assay with Mus musculus [22] and in the assay on Mus musculus [11] was Active. In addition, in assay [1], the Ratio IC50 was 0.2. Moreover, the result with Mus musculus [15] and in the assay with Mus musculus [19] was inactive. Further, the Activity in [2] is 60.3%; in the assay on Mus musculus [23], “Dose-dependent effect”; in assay [3], 52.9%. Further, the values for the Vmax/Km in [16], in assay [18] and in assay [20] were 0.00052 U/min/nM, 0.0696 U/min/nM and 0.104 U/min/nM, respectively.
For `Cc1ccc(S(=O)(=O)N2C(=O)C(c3ccccc3)N(S(=O)(=O)c3ccc(C)cc3)C(=O)C2c2ccccc2)cc1` (stereo unspecified), in [1], the Ratio IC50 is less than 0.4. The Activity in assay [2] came to 56.2%; in [3], 38.1%.
The corresponding values for `COc1ccc(S(=O)(=O)N2CC(=O)N(S(=O)(=O)c3ccc(OC)cc3)CC2=O)cc1` are less than 0.5, 57.6% and 48.6%.
